Experimental data published in ChEMBL document CHEMBL4270481, “ALK5 kinase inhibitory activity and synthesis of 2,3,4-substituted 5,5-dimethyl-5,6-dihydro-4H-pyrrolo[1,2-b]pyrazoles” (Eur J Med Chem, 2017).

Experiments:
[1] = molecular target: Cyclin-dependent kinase 2/cyclin E1 (Homo sapiens, UniProt P24941); experiment: Inhibition of human CDK2/cyclin E expressed in Sf9 insect cells using histone H1 as substrate in presence of [gamma-33P]ATP; type: cell-based
[2] = molecular target: Tyrosine-protein kinase ABL1 (Mus musculus, UniProt P00520); experiment: biochemical; type: cell-based, Sf9
[3] = system: MCF7; experiment: Cytotoxicity against human MCF7 cells assessed as decrease in cell proliferation after 72 hrs by calcein AM staining-based assay; type: functional; conditions: MCF7, 72 h
[4] = system: HeLa; experiment: Cytotoxicity against human HeLa cells assessed as decrease in cell proliferation up to 100 uM after 72 hrs by calcein AM staining-based assay
[5] = system: BJ; experiment: Cytotoxicity against human BJ cells assessed as decrease in cell proliferation up to 100 uM after 72 hrs by calcein AM staining-based assay
[6] = molecular target: T1, TGF-beta receptor type-1 (Homo sapiens) (UniProt P36897); experiment: Inhibition of ALK5 in serum starved human HeLa cells assessed as reduction in TGF-beta-induced SMAD2 S465/467 phosphorylation pre-incubated for 30 mins before TGF-beta stimulation for 30 mins by immunoblotting analysis; type: cell-based
T1 sequence (whole entry): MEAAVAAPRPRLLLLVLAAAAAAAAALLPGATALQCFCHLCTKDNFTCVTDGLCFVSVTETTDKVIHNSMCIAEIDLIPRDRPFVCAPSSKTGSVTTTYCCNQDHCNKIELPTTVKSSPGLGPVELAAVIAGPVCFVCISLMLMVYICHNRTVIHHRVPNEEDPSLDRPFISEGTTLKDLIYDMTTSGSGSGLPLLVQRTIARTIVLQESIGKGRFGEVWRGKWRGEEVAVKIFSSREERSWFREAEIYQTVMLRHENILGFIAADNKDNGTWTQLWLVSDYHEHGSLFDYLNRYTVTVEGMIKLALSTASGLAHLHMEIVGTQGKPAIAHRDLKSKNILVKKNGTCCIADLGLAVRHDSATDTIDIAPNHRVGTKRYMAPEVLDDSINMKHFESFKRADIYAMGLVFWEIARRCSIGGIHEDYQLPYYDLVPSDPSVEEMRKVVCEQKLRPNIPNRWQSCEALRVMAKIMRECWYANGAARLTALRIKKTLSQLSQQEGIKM

[7] = molecular target: Receptor-interacting serine/threonine-protein kinase 2 (Homo sapiens) (UniProt O43353); experiment: Inhibition of RIPK2 (unknown origin) assessed as residual enzyme activity at 1 uM relative to untreated control
[8] = molecular target: Serine/threonine-protein kinase D1 (Homo sapiens) (UniProt Q15139); experiment: Inhibition of PKD1 (unknown origin) assessed as residual enzyme activity at 1 uM relative to untreated control
[9] = molecular target: Casein kinase I isoform delta (Homo sapiens) (UniProt P48730); experiment: Inhibition of CK1delta (unknown origin) assessed as residual enzyme activity at 1 uM relative to untreated control
[10] = organism: Homo sapiens; experiment: Inhibition of PKA (unknown origin) assessed as residual enzyme activity at 1 uM relative to untreated control
[11] = molecular target: Ribosomal protein S6 kinase alpha-1 (Homo sapiens) (UniProt Q15418); experiment: Inhibition of RSK1 (unknown origin) assessed as residual enzyme activity at 1 uM relative to untreated control
[12] = molecular target: Serine/threonine-protein kinase Sgk1 (Homo sapiens) (UniProt O00141); experiment: Inhibition of SGK1 (unknown origin) assessed as residual enzyme activity at 1 uM relative to untreated control
[13] = molecular target: AMP-activated protein kinase, AMPK (Homo sapiens) (UniProt P54646+O43741+P54619+Q9UGJ0+Q9Y478+Q13131+Q9UGI9); experiment: Inhibition of AMPK (unknown origin) assessed as residual enzyme activity at 1 uM relative to untreated control; type: protein-complex assay
[14] = molecular target: Aurora kinase B (Homo sapiens) (UniProt Q96GD4); experiment: Inhibition of Aurora B (unknown origin) assessed as residual enzyme activity at 1 uM relative to untreated control
[15] = molecular target: Tyrosine-protein kinase BTK (Homo sapiens) (UniProt Q06187); experiment: Inhibition of BTK (unknown origin) assessed as residual enzyme activity at 1 uM relative to untreated control
[16] = molecular target: Calcium/calmodulin-dependent protein kinase type 1 (Homo sapiens) (UniProt Q14012); experiment: Inhibition of CAMK1 (unknown origin) assessed as residual enzyme activity at 1 uM relative to untreated control
[17] = molecular target: Ephrin type-A receptor 2 (Homo sapiens) (UniProt P29317); experiment: Inhibition of EPHA2 (unknown origin) assessed as residual enzyme activity at 1 uM relative to untreated control
[18] = molecular target: Receptor tyrosine-protein kinase erbB-4 (Homo sapiens) (UniProt Q15303); experiment: Inhibition of HER4 (unknown origin) assessed as residual enzyme activity at 1 uM relative to untreated control
[19] = molecular target: Interleukin-1 receptor-associated kinase 4 (Homo sapiens) (UniProt Q9NWZ3); experiment: Inhibition of IRAK4 (unknown origin) assessed as residual enzyme activity at 1 uM relative to untreated control
[20] = molecular target: Serine/threonine-protein kinase STK11 (Homo sapiens) (UniProt Q15831); experiment: Inhibition of LKB1 (unknown origin) assessed as residual enzyme activity at 1 uM relative to untreated control
[21] = molecular target: MAP/microtubule affinity-regulating kinase 3 (Homo sapiens) (UniProt P27448); experiment: Inhibition of MARK3 (unknown origin) assessed as residual enzyme activity at 1 uM relative to untreated control
[22] = molecular target: Ribosomal protein S6 kinase alpha-5 (Homo sapiens) (UniProt O75582); experiment: Inhibition of MSK1 (unknown origin) assessed as residual enzyme activity at 1 uM relative to untreated control
[23] = molecular target: Serine/threonine-protein kinase PAK 4 (Homo sapiens) (UniProt O96013); experiment: Inhibition of PAK4 (unknown origin) assessed as residual enzyme activity at 1 uM relative to untreated control
[24] = molecular target: RAC-alpha serine/threonine-protein kinase (Homo sapiens) (UniProt P31749); experiment: Inhibition of PKBalpha (unknown origin) assessed as residual enzyme activity at 1 uM relative to untreated control
[25] = molecular target: Protein kinase C alpha type (Homo sapiens) (UniProt P17252); experiment: Inhibition of PKCalpha (unknown origin) assessed as residual enzyme activity at 1 uM relative to untreated control
[26] = molecular target: Serine/threonine-protein kinase N2 (Homo sapiens) (UniProt Q16513); experiment: Inhibition of PRK2 (unknown origin) assessed as residual enzyme activity at 1 uM relative to untreated control
[27] = molecular target: Tyrosine-protein kinase SYK (Homo sapiens) (UniProt P43405); experiment: Inhibition of SYK (unknown origin) assessed as residual enzyme activity at 1 uM relative to untreated control
[28] = molecular target: Serine/threonine-protein kinase TBK1 (Homo sapiens) (UniProt Q9UHD2); experiment: Inhibition of TBK1 (unknown origin) assessed as residual enzyme activity at 1 uM relative to untreated control
[29] = molecular target: Dual specificity protein kinase TTK (Homo sapiens) (UniProt P33981); experiment: Inhibition of TTK (unknown origin) assessed as residual enzyme activity at 1 uM relative to untreated control

Sequence of Serine/threonine-protein kinase TBK1 (Homo sapiens) (Q9UHD2 whole entry): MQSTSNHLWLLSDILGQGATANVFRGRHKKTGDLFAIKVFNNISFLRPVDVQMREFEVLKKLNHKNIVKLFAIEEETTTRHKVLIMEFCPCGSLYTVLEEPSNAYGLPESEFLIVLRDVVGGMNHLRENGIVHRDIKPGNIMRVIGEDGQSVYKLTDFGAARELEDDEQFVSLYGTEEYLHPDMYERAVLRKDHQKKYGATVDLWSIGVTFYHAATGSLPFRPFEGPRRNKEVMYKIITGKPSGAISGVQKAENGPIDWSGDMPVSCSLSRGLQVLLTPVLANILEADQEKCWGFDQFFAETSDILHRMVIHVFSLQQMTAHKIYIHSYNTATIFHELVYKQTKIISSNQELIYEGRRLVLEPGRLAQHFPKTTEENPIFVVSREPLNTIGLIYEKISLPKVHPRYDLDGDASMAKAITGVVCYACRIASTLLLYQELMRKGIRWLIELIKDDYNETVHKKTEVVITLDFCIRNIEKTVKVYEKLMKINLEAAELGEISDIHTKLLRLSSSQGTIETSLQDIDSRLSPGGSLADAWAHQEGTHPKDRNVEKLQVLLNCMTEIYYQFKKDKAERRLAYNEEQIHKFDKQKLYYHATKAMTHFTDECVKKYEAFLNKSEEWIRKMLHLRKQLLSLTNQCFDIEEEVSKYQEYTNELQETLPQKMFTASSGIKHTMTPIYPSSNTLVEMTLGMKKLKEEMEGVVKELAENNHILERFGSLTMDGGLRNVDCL
Sequence of Ribosomal protein S6 kinase alpha-1 (Homo sapiens) (Q15418 whole entry): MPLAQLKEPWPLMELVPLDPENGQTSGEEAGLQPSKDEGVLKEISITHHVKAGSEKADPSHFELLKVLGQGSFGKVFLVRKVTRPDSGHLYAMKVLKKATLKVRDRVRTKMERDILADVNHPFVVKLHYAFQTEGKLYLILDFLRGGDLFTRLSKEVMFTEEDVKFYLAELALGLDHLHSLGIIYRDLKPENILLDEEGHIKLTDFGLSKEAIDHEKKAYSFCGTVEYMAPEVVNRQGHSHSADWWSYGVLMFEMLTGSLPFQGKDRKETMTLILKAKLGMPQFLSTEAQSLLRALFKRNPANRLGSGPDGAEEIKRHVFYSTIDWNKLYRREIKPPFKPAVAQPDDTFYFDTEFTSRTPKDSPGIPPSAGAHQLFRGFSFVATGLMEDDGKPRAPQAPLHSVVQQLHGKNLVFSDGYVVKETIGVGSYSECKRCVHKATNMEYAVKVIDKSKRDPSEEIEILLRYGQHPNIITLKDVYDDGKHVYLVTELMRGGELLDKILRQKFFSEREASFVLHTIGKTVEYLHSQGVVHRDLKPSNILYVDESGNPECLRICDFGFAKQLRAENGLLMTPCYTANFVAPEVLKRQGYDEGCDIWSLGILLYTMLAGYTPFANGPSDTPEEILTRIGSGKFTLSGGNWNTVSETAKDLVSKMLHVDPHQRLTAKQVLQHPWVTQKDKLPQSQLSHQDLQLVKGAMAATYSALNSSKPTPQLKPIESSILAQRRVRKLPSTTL
Sequence of Serine/threonine-protein kinase N2 (Homo sapiens) (Q16513 whole entry, looked up): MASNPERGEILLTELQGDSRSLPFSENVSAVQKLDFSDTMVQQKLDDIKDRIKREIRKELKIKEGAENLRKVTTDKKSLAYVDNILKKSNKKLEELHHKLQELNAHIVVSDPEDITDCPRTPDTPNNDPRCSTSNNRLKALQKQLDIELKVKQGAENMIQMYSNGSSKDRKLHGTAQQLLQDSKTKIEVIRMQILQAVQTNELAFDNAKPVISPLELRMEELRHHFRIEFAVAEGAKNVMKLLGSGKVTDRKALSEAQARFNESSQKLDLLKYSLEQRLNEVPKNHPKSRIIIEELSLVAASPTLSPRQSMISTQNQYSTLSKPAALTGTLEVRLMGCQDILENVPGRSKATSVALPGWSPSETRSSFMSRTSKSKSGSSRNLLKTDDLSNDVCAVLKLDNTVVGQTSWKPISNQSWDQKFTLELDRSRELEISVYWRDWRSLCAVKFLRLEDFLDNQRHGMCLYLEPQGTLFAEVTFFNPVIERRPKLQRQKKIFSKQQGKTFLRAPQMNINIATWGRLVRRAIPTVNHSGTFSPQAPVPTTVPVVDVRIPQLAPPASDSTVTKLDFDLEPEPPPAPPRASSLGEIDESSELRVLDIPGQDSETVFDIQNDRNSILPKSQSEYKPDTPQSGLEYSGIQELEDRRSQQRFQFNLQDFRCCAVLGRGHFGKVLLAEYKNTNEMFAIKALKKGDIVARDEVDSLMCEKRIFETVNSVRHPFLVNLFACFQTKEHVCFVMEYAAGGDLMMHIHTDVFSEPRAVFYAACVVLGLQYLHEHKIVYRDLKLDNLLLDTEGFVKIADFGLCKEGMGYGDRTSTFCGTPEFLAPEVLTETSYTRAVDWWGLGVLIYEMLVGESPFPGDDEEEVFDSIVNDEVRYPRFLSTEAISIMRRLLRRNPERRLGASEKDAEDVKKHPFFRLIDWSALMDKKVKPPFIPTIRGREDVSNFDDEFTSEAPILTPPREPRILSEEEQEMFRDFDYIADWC
Sequence of Ephrin type-A receptor 2 (Homo sapiens) (P29317 whole entry): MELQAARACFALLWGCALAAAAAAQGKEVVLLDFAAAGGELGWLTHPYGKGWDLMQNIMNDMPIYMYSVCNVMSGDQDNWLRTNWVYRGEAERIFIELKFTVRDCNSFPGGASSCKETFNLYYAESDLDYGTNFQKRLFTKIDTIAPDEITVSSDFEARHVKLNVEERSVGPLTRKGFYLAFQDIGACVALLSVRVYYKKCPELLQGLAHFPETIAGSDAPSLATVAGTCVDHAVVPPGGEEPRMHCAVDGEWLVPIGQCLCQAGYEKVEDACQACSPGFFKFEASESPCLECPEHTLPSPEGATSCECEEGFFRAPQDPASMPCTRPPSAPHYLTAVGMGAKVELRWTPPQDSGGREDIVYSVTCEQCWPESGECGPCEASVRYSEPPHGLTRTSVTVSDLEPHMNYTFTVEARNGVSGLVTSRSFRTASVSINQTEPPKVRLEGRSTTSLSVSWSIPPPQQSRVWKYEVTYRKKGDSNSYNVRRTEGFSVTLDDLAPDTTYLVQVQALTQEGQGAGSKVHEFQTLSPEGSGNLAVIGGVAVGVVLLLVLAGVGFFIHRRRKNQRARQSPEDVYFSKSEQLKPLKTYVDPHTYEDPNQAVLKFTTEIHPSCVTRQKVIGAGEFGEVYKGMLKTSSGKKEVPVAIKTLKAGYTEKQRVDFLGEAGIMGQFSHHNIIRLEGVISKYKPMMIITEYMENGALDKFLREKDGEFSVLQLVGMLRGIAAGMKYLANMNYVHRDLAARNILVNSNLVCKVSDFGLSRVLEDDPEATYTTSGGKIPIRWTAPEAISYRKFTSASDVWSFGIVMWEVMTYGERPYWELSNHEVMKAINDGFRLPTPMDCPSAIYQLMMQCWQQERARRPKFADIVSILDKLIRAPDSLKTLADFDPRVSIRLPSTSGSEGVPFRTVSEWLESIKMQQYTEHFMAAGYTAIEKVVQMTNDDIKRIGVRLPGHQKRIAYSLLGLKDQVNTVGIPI
Sequence of RAC-alpha serine/threonine-protein kinase (Homo sapiens) (P31749 whole entry): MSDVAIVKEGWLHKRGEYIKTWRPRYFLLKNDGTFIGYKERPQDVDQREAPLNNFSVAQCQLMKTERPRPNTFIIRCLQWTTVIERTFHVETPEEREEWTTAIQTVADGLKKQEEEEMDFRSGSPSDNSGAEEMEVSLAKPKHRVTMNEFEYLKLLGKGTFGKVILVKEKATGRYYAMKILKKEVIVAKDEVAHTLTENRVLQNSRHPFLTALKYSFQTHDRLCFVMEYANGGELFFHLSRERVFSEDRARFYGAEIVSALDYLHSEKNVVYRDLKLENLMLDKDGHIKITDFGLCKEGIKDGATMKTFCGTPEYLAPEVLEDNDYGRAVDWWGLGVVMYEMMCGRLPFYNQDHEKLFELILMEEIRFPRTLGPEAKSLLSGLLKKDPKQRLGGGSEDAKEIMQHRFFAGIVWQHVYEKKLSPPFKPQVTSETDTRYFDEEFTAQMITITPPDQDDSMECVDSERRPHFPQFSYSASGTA
Sequence of Serine/threonine-protein kinase PAK 4 (Homo sapiens) (O96013 whole entry, looked up): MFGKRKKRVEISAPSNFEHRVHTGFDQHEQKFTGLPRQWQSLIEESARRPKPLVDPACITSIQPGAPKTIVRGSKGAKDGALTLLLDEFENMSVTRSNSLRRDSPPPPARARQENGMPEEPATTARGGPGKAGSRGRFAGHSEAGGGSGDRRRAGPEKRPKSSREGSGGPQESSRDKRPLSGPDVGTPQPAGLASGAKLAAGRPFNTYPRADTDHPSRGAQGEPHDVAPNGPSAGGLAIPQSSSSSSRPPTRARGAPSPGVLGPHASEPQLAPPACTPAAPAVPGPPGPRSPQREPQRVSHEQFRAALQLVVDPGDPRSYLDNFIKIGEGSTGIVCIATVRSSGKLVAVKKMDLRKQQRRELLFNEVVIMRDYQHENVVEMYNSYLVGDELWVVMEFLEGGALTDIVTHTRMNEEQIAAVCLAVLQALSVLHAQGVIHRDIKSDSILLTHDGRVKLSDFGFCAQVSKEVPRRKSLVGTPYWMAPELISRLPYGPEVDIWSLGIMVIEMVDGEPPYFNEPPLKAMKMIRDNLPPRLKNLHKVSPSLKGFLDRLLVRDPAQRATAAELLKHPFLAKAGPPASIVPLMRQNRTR
Sequence of Casein kinase I isoform delta (Homo sapiens) (P48730 whole entry, looked up, canonical isoform): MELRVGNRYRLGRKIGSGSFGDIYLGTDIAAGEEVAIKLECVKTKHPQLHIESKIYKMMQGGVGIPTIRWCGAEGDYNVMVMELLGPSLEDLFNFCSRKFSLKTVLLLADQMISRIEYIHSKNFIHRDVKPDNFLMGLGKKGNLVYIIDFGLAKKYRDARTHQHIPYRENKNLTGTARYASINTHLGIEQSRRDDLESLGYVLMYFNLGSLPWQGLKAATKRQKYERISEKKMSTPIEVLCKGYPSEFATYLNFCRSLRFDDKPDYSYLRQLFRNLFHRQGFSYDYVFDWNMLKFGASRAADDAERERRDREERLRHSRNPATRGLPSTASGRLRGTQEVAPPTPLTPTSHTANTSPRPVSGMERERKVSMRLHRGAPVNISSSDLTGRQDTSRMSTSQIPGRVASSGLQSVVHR

Cc1cccc(-c2nn3c(c2-c2ccc(O)cc2)C(C)C(C)(C)C3)n1 (centres undefined)
IC50 [1]: > 100 µM
IC50 [2]: 66 µM
IC50 [3]: > 100 µM
Activity [4]: Non-Toxic
Activity [5]: Non-Toxic
inhibition [6]: Dose-dependent effect
Activity [7]: 11%
Activity [8]: 12%
Activity [9]: 34%
Activity [10]: 60 to 80%
Activity [11]: 60 to 80%
Activity [12]: 60 to 80%
Activity [13]: > 80%
Activity [14]: > 80%
Activity [15]: > 80%
Activity [16]: > 80%
Activity [17]: > 80%
Activity [18]: > 80%
Activity [19]: > 80%
Activity [20]: > 80%
Activity [21]: > 80%
Activity [22]: > 80%
Activity [23]: > 80%
Activity [24]: > 80%
Activity [25]: > 80%
Activity [26]: > 80%
Activity [27]: > 80%
Activity [28]: > 80%
Activity [29]: > 80%
